Structures can show the parent of a compound that is named as a salt.

In patent publication US9907800B2, “Kinase inhibitors and method of treating cancer” (University Health Network, priority 2010, dated 2018) one finds IC50 data, which are given here for 24 compounds.

Assay type in all cases: biochemical
One assay concerns the target human PLK4 (Homo sapiens (Human), UniProt O00444). The assay is described as follows: PLK4 inhibition assay (indirect ELISA). The note with it: read-out: PLK4 IC50 Ranges.
Another assay concerns the target Aurora B (Homo sapiens (Human), UniProt Q96GD4). Briefly: Aurora B inhibition assay (Z-Lyte). Particulars: read-out: Aurora B IC50 Ranges.
In another assay the target is FLT3 (Homo sapiens (Human), UniProt P36888). Briefly: FLT3 inhibition assay (Z-Lyte). The note with it: read-out: Flt3 IC50 Ranges.
Sequence of FLT3 (P36888 27-993): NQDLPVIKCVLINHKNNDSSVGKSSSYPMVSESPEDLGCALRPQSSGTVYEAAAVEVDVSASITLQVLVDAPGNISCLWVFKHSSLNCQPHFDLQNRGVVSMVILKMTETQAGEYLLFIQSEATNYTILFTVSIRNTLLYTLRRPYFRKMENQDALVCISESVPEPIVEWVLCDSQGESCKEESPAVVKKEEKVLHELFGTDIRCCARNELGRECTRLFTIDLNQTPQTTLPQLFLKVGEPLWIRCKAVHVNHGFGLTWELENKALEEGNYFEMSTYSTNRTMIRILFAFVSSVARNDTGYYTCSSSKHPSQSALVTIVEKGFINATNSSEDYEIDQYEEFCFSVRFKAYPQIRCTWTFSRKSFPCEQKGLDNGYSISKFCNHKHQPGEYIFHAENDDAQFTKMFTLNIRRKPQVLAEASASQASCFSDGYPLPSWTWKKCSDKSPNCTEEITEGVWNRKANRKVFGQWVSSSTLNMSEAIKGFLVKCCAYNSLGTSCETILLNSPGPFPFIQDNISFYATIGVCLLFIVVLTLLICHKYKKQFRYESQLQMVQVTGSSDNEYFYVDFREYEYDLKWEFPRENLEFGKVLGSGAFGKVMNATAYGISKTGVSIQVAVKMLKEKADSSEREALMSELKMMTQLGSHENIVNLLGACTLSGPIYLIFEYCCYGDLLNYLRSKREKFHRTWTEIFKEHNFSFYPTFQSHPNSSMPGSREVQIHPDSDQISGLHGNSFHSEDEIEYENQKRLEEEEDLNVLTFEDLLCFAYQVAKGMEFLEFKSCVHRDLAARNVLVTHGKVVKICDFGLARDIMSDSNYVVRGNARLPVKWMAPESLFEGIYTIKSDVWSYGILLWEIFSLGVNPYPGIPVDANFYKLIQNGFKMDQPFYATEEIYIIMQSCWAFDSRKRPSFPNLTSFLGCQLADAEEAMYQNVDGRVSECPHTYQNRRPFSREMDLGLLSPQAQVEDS

Sequence of human PLK4 (O00444 1-391): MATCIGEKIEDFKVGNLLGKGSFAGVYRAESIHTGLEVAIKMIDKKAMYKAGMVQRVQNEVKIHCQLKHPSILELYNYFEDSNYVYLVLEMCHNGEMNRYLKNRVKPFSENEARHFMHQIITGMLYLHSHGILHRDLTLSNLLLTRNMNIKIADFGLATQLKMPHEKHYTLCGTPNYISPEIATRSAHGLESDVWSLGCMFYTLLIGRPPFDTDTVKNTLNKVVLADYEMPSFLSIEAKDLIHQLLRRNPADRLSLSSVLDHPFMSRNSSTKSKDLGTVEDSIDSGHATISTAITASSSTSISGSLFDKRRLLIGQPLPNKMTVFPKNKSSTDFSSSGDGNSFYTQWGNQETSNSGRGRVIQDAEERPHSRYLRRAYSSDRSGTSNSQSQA
Sequence of Aurora B (Q96GD4 whole entry): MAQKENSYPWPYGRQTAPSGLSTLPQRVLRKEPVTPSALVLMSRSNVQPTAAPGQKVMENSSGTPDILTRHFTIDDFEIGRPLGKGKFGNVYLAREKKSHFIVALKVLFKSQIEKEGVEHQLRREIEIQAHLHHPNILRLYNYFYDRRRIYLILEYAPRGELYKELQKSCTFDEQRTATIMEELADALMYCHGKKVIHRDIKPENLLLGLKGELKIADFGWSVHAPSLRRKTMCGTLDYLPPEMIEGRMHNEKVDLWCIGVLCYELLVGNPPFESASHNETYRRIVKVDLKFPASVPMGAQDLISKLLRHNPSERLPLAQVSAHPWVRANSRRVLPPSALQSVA
Method for Aurora B: Aurora B inhibition was determined using the Z-Lyte assay kit from Invitrogen. […] The % inhibition values were determined according to the manufacturer's directions and IC50 values were obtained using a non-linear 4 point logistic curve fit (XLfit4, IDBS)
Method for FLT3: The enzymatic activity of FLT3 was determined using the Z-Lyte assay kit from Invitrogen (Invitrogen cat #PV3191). […] The % inhibition values were determined according to the manufacturer's directions and IC50 values were obtained using a non-linear 4 point logistic curve fit (XLfit4, IDBS).
Method for human PLK4: PLK4 activity was measured using an indirect ELISA detection system. […] The colourimetric reaction was allowed to continue for 5 minutes, followed by addition of stop solution (0.5 N sulphuric acid), and quantified by detection at 450 nm with either a monochromatic or filter based plate reader (Molecular Devices M5 or Beckman DTX880, respectively).
Compounds were pre-incubated in the presence of enzyme for 15 minutes prior to addition of ATP and the activity remaining quantified using the above described activity assay. […] The IC50 value was determined using a non-linear 4 point logistic curve fit (XLfit4, IDBS) with the formula; (A+(B/(1+((x/C)^D)))), where A=background value, B=range, C=inflection point, D=curve fit parameter.

Turning to `CCN1CCN(c2ccc(-c3n[nH]c4cc([C@@H]5C[C@@]56C(=O)Nc5ccc(OC)cc56)ccc34)cc2)CC1` [Example A99, (1R,2S)-2-(3-(4-(4-ethylpiperazin-1-yl)phenyl)-1H-indazol-6-yl)-5′-methoxyspiro[cyclopropane-1,3′-indolin]-2′-one 2,2,2-trifluoroacetate], the IC50 at human PLK4, on Aurora B and on FLT3 was < 100 nM each time.
Consider `COc1ccc2c(c1)[C@]1(C[C@H]1c1ccc3c(-c4ccc(N5CCN(C6CCCC6)CC5)cc4)n[nH]c3c1)C(=O)N2` [Example A192, (1R,2S)-2-(3-(4-(4-cyclopentylpiperazin-1-yl)phenyl)-1H-indazol-6-yl)-5′-methoxyspiro[cyclopropane-1,3′-indolin]-2′-one 2,2,2-trifluoroacetate], for which the IC50 is < 100 nM at human PLK4, < 100 nM at Aurora B and 100 to 1000 nM at FLT3.
Take `COc1ccc2c(c1)[C@]1(C[C@H]1c1ccc3c(-c4cccc(C(=O)N5CCN(C)CC5)c4)n[nH]c3c1)C(=O)N2` (relative stereo) [Example A149, (1R*,2S*)-5′-methoxy-2-(3-(3-(4-methylpiperazine-1-carbonyl)phenyl)-1H-indazol-6-yl)spiro[cyclopropane-1,3′-indolin]-2′-one 2,2,2-trifluoroacetate]: the IC50 at human PLK4 was < 100 nM; at Aurora B it was > 1000 nM; at FLT3 it was > 1000 nM.
Regarding `COc1ccc2c(c1)[C@]1(C[C@H]1c1ccc3c(/C=C/c4cccc(CN(C)C)c4)n[nH]c3c1)C(=O)N2` [Example A134, (1R,2S)-2-(3-(3-((dimethylamino)methyl)styryl)-1H-indazol-6-yl)-5′-methoxyspiro[cyclopropane-1,3′-indolin]-2′-one 2,2,2-trifluoroacetate], at FLT3, the concentration for half-maximal inhibition (IC50) was < 100 nM.
As for `COc1ccc2c(c1)[C@]1(C[C@H]1c1ccc3c(-c4ccc(CO)cc4)n[nH]c3c1)C(=O)N2` (relative stereo) [Example A45, (1R*,2S*)-2-(3-(4-(hydroxymethyl)phenyl)-1H-indazol-6-yl)-5′-methoxyspiro[cyclopropane-1,3′-indolin]-2′-one 2,2,2-trifluoroacetate], the IC50 is < 100 nM at human PLK4, 100 to 1000 nM on Aurora B and > 1000 nM at FLT3.
Take `COc1ccc2c(c1)[C@]1(C[C@H]1c1ccc3c(-c4ccc(N5CC[C@H](N(C)C)C5)cc4)n[nH]c3c1)C(=O)N2` [Example A128, (1R,2S)-2-(3-(4-((S)-3-(dimethylamino)pyrrolidin-1-yl)phenyl)-1H-indazol-6-yl)-5′-methoxyspiro[cyclopropane-1,3′-indolin]-2′-one 2,2,2-trifluoroacetate]: the IC50 at human PLK4 is < 100 nM; on FLT3 it was 100 to 1000 nM.
For `COc1ccc2c(c1)[C@]1(C[C@H]1c1ccc3c(-c4ccc(N5CCN(C(C)C)CC5)cc4)n[nH]c3c1)C(=O)N2` [Example A97, (1R,2S)-2-(3-(4-(4-isopropylpiperazin-1-yl)phenyl)-1H-indazol-6-yl)-5′-methoxyspiro[cyclopropane-1,3′-indolin]-2′-one 2,2,2-trifluoroacetate], the IC50 on FLT3 was < 100 nM.
For the compound `COc1ccc2c(c1)[C@]1(C[C@H]1c1ccc3c(/C=C/c4ccc(CN5C[C@@H](C)O[C@@H](C)C5)cc4)n[nH]c3c1)C(=O)N2` [Example A185], the IC50 at FLT3 is 100 to 1000 nM.
For the compound `COc1ccc2c(c1)[C@]1(C[C@H]1c1ccc3c(/C=C/c4cccc(CN(C)C)c4)n[nH]c3c1)C(=O)N2` (relative stereo) [Example A135, (1R*,2S*)-2-(3-(3-((dimethylamino)methyl)styryl-1H-indazol-6-yl)-5′-methoxyspiro[cyclopropane-1,3′-indolin]-2′-one 2,2,2-trifluoroacetate], the IC50 at human PLK4 and on Aurora B was < 100 nM each time.
Take `CCN(CC)Cc1c(F)cc(/C=C/c2n[nH]c3cc([C@@H]4C[C@@]45C(=O)Nc4ccccc45)ccc23)cc1F` [Example A221, (1R,2S)-(E)-2-(3-(4-((diethylamino)methyl)-3,5-difluorostyryl)-1H-indazol-6-yl)spiro[cyclopropane-1,3′-indolin]-2′-one 2,2,2-trifluoroacetate]: the 50% inhibitory concentration (IC50) at human PLK4 and on Aurora B was < 100 nM in each case.
Turning to `COc1ccc2c(c1)[C@]1(C[C@H]1c1ccc3c(/C=C/c4cccc(CN5CCOCC5)c4)n[nH]c3c1)C(=O)N2` [Example A132, (1R,2S)-5′-methoxy-2-(3-(3-(morpholinomethyl)styryl)-1H-indazol-6-yl)spiro[cyclopropane-1,3′-indolin]-2′-one 2,2,2-trifluoroacetate], the IC50 at FLT3 was < 100 nM.
As for `COc1ccc2c(c1)[C@]1(C[C@H]1c1ccc3c(/C=C/c4ccc5c(c4)CN(C)CC5)n[nH]c3c1)C(=O)N2` [Example A64, (1R,2S)-5′-methoxy-2-(3-((E)-2-(2-methyl-1,2,3,4-tetrahydroisoquinolin-7-yl)vinyl)-1H-indazol-6-yl)spiro[cyclopropane-1,3′-indolin]-2′-one 2,2,2-trifluoroacetate salt], the IC50 on human PLK4 and on Aurora B was < 100 nM throughout.
In the case of `COc1ccc2c(c1)[C@]1(C[C@H]1c1ccc3c(/C=C/c4cccc(CN5CCOCC5)c4)n[nH]c3c1)C(=O)N2` (relative stereo) [Example A133, (1R*,2S*)-5′-methoxy-2-(3-(3-(morpholinomethyl)styryl)-1H-indazol-6-yl)spiro[cyclopropane-1,3′-indolin]-2′-one 2,2,2-trifluoroacetate], the IC50 at human PLK4 and at Aurora B was < 100 nM each time.
Regarding `COc1ccc2c(c1)[C@]1(C[C@H]1c1ccc3c(/C=C/c4ccncc4)n[nH]c3c1)C(=O)N2` [Example A111, (1R,2S)-5′-methoxy-2-(3-((E)-2-(pyridin-4-yl)vinyl)-1H-indazol-6-yl)spiro[cyclopropane-1,3′-indolin]-2′-one 2,2,2-trifluoroacetate], the half-inhibitory concentration (IC50) on human PLK4 and on Aurora B was < 100 nM in each case.
With `COc1ccc2c(c1)[C@]1(C[C@H]1c1ccc3c(/C=C/c4cccnc4)n[nH]c3c1)C(=O)N2` [Example A197, (1R,2S)-5′-methoxy-2-(3-((E)-2-(pyridin-3-yl)vinyl)-1H-indazol-6-yl)spiro[cyclopropane-1,3′-indolin]-2′-one], the 50% inhibitory concentration (IC50) on human PLK4 and at Aurora B was < 100 nM throughout.
For `COc1ccc2c(c1)[C@]1(C[C@H]1c1ccc3c(-c4ccc(CCN5CCOCC5)cc4)n[nH]c3c1)C(=O)N2` (relative stereo) [Example A159, (1R*,2S*)-5′-methoxy-2-(3-(4-(2-morpholinoethyl)phenyl)-1H-indazol-6-yl)spiro[cyclopropane-1,3′-indolin]-2′-one 2,2,2-trifluoroacetate], the IC50 at human PLK4 and on Aurora B was < 100 nM throughout.
`O=C1Nc2ccccc2[C@]12C[C@H]2c1ccc2c(/C=C/c3cc(F)c(CN4CCOCC4)c(F)c3)n[nH]c2c1` [Example A116, (1R,2S)-(E)-2-(3-(3,5-difluoro-4-(morpholinomethyl)styryl)-1H-indazol-6-yl)spiro[cyclopropane-1,3′-indolin]-2′-one 2,2,2-trifluoroacetate]: the IC50 on human PLK4 and at Aurora B was < 100 nM throughout.
Regarding `O=C1Nc2ccccc2[C@]12C[C@H]2c1ccc2c(/C=C/c3ccc(N4CCNCC4)cc3)n[nH]c2c1` [Example A92, (1R,2S)-(E)-2-(3-(4-(piperazin-1-yl)styryl)-1H-indazol-6-yl)spiro[cyclopropane-1,3′-indolin]-2′-one 2,2,2-trifluoroacetate], the IC50 at human PLK4 and at Aurora B was < 100 nM throughout.
As for `COc1ccc2c(c1)[C@]1(C[C@H]1c1ccc3c(-c4ccc(N5CCN(CCO)CC5)cc4)n[nH]c3c1)C(=O)N2` [Example A191, (1R,2S)-2-(3-(4-(4-(2-hydroxyethyl)piperazin-1-yl)phenyl)-1H-indazol-6-yl)-5′-methoxyspiro[cyclopropane-1,3′-indolin]-2′-one 2,2,2-trifluoroacetate], the IC50 at human PLK4 and on Aurora B was < 100 nM throughout.
`COc1ccc2c(c1)[C@]1(C[C@H]1c1ccc3c(/C=C/c4cc(F)c(CN(C)C)c(F)c4)n[nH]c3c1)C(=O)N2` [Example A216, (1R,2S)-(E)-2-(3-(4-((dimethylamino)methyl)-3,5-difluorostyryl)-1H-indazol-6-yl)-5′-methoxyspiro[cyclopropane-1,3′-indolin]-2′-one 2,2,2-trifluoroacetate]: the half-maximal inhibitory concentration (IC50) on human PLK4 and on Aurora B was < 100 nM each time.
In the case of `COc1ccc2c(c1)[C@]1(C[C@H]1c1ccc3c(/C=C/c4ccc(CN5CCCOCC5)cc4)n[nH]c3c1)C(=O)N2` [Example A73, (1R,2S)-(E)-2-(3-(4-((1,4-oxazepan-4-yl)methyl)styryl)-1H-indazol-6-yl)-5′-methoxyspiro[cyclopropane-1,3′-indolin]-2′-one 2,2,2-trifluoroacetate salt], the IC50 at human PLK4 and at Aurora B was < 100 nM throughout.
As for `COc1ccc2c(c1)[C@]1(C[C@H]1c1ccc3c(/C=C/c4ccc5c(c4)CCN(C)C5)n[nH]c3c1)C(=O)N2` [Example A75, (1R,2S)-5′-methoxy-2-(3-((E)-2-(2-methyl-1,2,3,4-tetrahydroisoquinolin-6-yl)vinyl)-1H-indazol-6-yl)spiro[cyclopropane-1,3′-indolin]-2′-one 2,2,2-trifluoroacetate salt], the IC50 at human PLK4 and at Aurora B was < 100 nM throughout.
Consider `O=C1Nc2ccccc2[C@]12C[C@H]2c1ccc2c(/C=C/c3csc(CN4CCOCC4)c3)n[nH]c2c1` [Example A202, (1R,2S)-2-(3-((E)-2-(5-(morpholinomethyl)thiophen-3-yl)vinyl)-1H-indazol-6-yl)spiro[cyclopropane-1,3′-indolin]-2′-one 2,2,2-trifluoroacetate], for which the IC50 on human PLK4 and at Aurora B was < 100 nM each time.
Turning to `COc1ccc2c(c1)[C@@]1(C[C@@H]1c1ccc3c(-c4ccc(N5CCN(C)CC5)nc4)n[nH]c3c1)C(=O)N2` [Example A15, (1S,2R)-5′-methoxy-2-(3-(6-(4-methylpiperazin-1-yl)pyridin-3-yl)-1H-indazol-6-yl)spiro[cyclopropane-1,3′-indolin]-2′-one], the values for the IC50 on human PLK4 and at Aurora B were < 100 nM and > 1000 nM, respectively.
